From patent US20190111040A1, “IN VIVO AMELIORATION OF ENDOGENOUS ANTI-TUMOR AUTOANTIBODIES TARGETING SURFACE TUMOR ANTIGENS VIA LOW-DOSE P4N” (THE JOHNS HOPKINS UNIVERSITY, priority 2016, published 2019)
Structures can show the parent of a compound that is named as a salt.

Legend:
[1] = system: CT26 tumors; assay: P4N treatments in vivo, CT-26 tumors in BALB/c mice; conditions: one intratumoral injection of 2.5 mg/kg or 5 mg/kg
Procedure: (§1) P4N treatments in vivo. BALB/c or BALB/c/nu mice (6 week old) were inoculated subcutaneously with 1×10^6 CT-26 cells in 100 μl PBS. When the average tumor mass reached 50 mm^3, the animals were treated with 2.5 mg/kg or 5 mg/kg of P4N in one intratumoral injection. Subsequently, the tumor volumes were measured using a caliper every 2 days, and the volumes were calculated using the following formula: volume (mm^3)=length×width×height. Before sacrifice, the sera of the mice were collected for experimental use.

[2] = system: CT26 tumors; assay: P4N in B cell or CD8+ T cell depleted mice bearing CT26 tumors; format: in vivo, BALB/c mice; conditions: 5 mg/kg intratumoral every week
Procedure: FIGS. 1A-1C illustrate the antitumor effects of low dose P4N in immune competent and deficient mice. (A) BALB/c (n=10/group) and nude mice (n=10/group) bearing CT26 tumors were treated with a single intratumoral injection of 2.5 or 5 mg/kg of P4N N. (B) B cell or CD8+ T cell depleted BALB/c mice (n=9/group) bearing CT26 tumors were treated with 5 mg/kg of P4N by intratumoral injection every week. Tumor volumes were measured every 2 days after treatments. Significant differences between the P4N groups and the PBS group were identified and labeled with *:p<0.05 and **:p<0.01. (C) Immunohistochemistry staining was used to monitor the infiltrations of macrophage (F4/80), DC (CD11c), T (CD3) and B cells (CD20) in the tumor area after a single intratumoral injection of PBS or 5 mg/kg of P4N. The photos are representative of the mice sacrificed on day 7 after the treatments.
as §1, with “use. […]” for “use.”

[3] = system: PBMCs; assay: Cytokine and chemokine profile of P4N treated PBMC, Bio-Plex; format: cell-based, human; conditions: 3 μM P4N
Procedure: PBMCs isolated from 7 healthy donors were treated with 3 μM of P4N for 48 h. Supernatants were collected and analyzed for human cytokines using the Bio-Plex assay. Shown are the changed results of the production of 27 human cytokines when PBMCs were treated with P4N in three independent experiments. The levels of IL-4, IL-5, IL-7, IL-9, Eotaxin and FGF were undetectable.
The effects of P4N on the profile of cytokine expression. PBMCs (2×10^6 cells/ml) from seven healthy individuals were seeded in each well of a 24-well microplate and treated with 3 μM of P4N for 24 h. Cell supernatants were collected for analysis of cytokine levels by a cytokine multiplex assay using the Bio-Plex Pro Human Cytokine Standard Group I 27-Plex, following the manufacturer's protocol (Bio-Rad, Hercules, Calif.). The change levels of cytokine were calculated as follows: Change level=(value of the P4N-treated cells)/(value of the untreated cells)×100%.

[4] = system: THP-1 cells; assay: Gene expression profiling of P4N treated THP-1 cells, cDNA microarray; format: cell-based; conditions: THP-1 cells following P4N treatment
Procedure: Gene expression profiling and analysis. Amplification and labeling of RNA was performed with the Illumina®TotalPrep RNA Amplification Kit from Life Technologies (Ambion, Applied Biosystems, Foster City, Calif.) using 150 ng of RNA per sample. Labeled RNA (750 ng) was hybridized to Illumina HT-12 v4 Expression BeadChips (˜48,000 probes) and processed according to the manufacturer's protocol. Expression data underwent quality control and normalization by GenomeStudio (Illumina, San Diego, Calif.). Genes differentially expressed in the cells treated with P4N relative to the untreated cells were identified, with special emphasis given to genes involved in cytokine-cytokine receptor interaction (KEGG pathway). […] The identified genes were subjected to the Database for Annotation, Visualization and Integrated Discovery (DAVID) (david.abcc.ncifcrf.gov/) for Gene Ontology (GO) and KEGG pathway enrichment analysis. A P-value <0.05 was set as threshold of enrichment analysis.

[5] = system: THP-1 cells; assay: Activin A and BAFF mRNA and protein in THP-1 cells, RT-PCR and ELISA; format: cell-based
Procedure: FIGS. 5A-5F depict the expression of Activin A/BAFF induced by P4N treatments. (A) P4N induced Activin A or BAFF expression in human PBMCs as determined by RT-PCR. S1-S5 display different individual blood samples collected from 5 different human donors; N, no treatment; P, P4N-treatment (3 μM). The change in Activin A and BAFF expression (mean of 5 patients) relative to the control (NC) is plotted as a histogram (B) The effect of increasing dosages of P4N for 12 h on mRNA and protein levels of Activin A or BAFF in THP-1 cells was analyzed by RT-PCR and ELISA. (C) The effect of 6 μM P4N on mRNA and protein levels of Activin A or BAFF in THP-1 cells was determined at a different time period. (D) The effect of different inhibitors on Activin A-induced BAFF expression was examined. The expression of BAFF mRNA in inhibitor-treated THP-1 cells was determined by RT-PCR, and (E) BAFF protein secretion was measured by ELISA. (F) The effect of THP-1 conditioned media on the proliferation of Raji cells and OKT3 hybridoma cells were determined. Media were harvested, in which THP-1 cells were pre-treated without inhibitor (2) or with SB431542 (3), A83-01 (4), SIS3 (5), SB203580 (6) or PD98059 (7) and then treated with P4N for 12 h. The results are expressed as % viable cells relative to the control (NC, media from untreated THP-1 cells). All values are the means of triplicate samples±SEM. The significant differences in the results of inhibitor and P4N-treated groups compared with the untreated group are indicated by ***P<0.001.
Reverse transcription PCR. Human PBMCs or THP-1 cells were treated with P4N, and then the mRNA expression of INHBA and BAFF in these cells was measured by reverse transcription PCR. Briefly, total cellular RNA was extracted with Trizol reagent (Invitrogen) and reverse-transcribed into cDNA using the Superscript RT-kit (Invitrogen). The cDNA of INHBA and BAFF were then amplified by PCR. GAPDH cDNA in the samples was used to normalize the loading amounts in each reaction. […]

Q: Which results are given for `C[C@H](Cc1ccc(OCCN2CCCCC2)c(OCCN2CCCCC2)c1)[C@@H](C)Cc1ccc(OCCN2CCCCC2)c(OCCN2CCCCC2)c1` [P4N, meso-2,3-dimethyl-1,4-bis(3,4-[2-(piperidino)ethoxyphenyl])butane tetrakishydrochloride salt]?
A: growth of CT26 tumors [1]: significantly inhibited; P4N-induced tumor inhibition under B cell-depletion ([2]; B cell depleted): abolished the effect of P4N-induced tumor inhibition; P4N-induced tumor inhibition under CD8+ T cell-depletion ([2]; CD8+ T cell depleted): only attenuated the effect of P4N-induced tumor inhibition; levels of pro-inflammatory cytokines (TNF-α, IL-1P and IL-6) and chemokines (IL-8, IP-10, MIP-1α, MIP-1β and RANTES) [3]: significantly increased; levels of IL-4, IL-5, IL-7, IL-9, Eotaxin and FGF ([3]; 48 h): undetectable; up-regulated genes of cytokine-cytokine interaction (KEGG pathway) [4]: 26; up-regulated genes of growth factor activity (GO: 0008083) [4]: 10; time of elevated BAFF expression ([5]; THP-1, 6 μM P4N): 8 h; time of up-regulated mRNA expression of Activin A ([5]; THP-1, 6 μM P4N): 2 h; dose dependence of Activin A and BAFF mRNA and protein levels ([5]; THP-1, increasing dosages of P4N, 12 h): dose-dependent manner
